From patent US20240059695A1, “SUBSTITUTED IMIDAZO[1,5-b]PYRIDAZINE COMPOUNDS AS KINASE INHIBITORS AND USE THEREOF” (IMPACT THERAPEUTICS (SHANGHAI), INC, priority 2020, published 2024)
Like-named read-outs stand apart in the source and are kept apart here.

Tests used:
[1] = test system: human colon cancer LoVo cell; experiment: MTT proliferation assay, LoVo; assay type: cell-based; conditions: MTT, 4 days, read-out: IC50 (nM), proliferation of LoVo cell
Experimental: (§1) The cells were seeded into 96-well cell culture plate with a density of 2000/4000 cells per well and incubated overnight in a 5% CO2 incubator at 37° C. […] 5 μL diluent of each concentration was added to 120 μL of medium (25 times diluted) and mixed by shaking. The overnight cell plates were taken and the culture medium was removed, 195 μL of fresh medium was added to each well, and 5 μL of diluted medium containing the corresponding concentration of the test compound was added respectively (the final concentration of DMSO is 1%), and the culture plate was then placed in a 5% CO2 incubator at 37° C. for 4 days. After removing the original solution, 100 SEL of fresh serum-free DMEM medium containing MTT (0.5 mg/mL) was added to each well, the culture was continued. […] Cell viability (%)=(ODcompound−ODbackground)/ODDMSO−ODbackground)×100. GraphPad Prism 6.0 was used to analyze the data. The inhibitory activity of compounds on cell proliferation was plotted based on cell viability and the logarithm of compound concentration. The IC5.0 value was fitted by a sigmoidal dose response curve equation Y=100/(1+10^(LogC-LogIC50)), wherein C was the concentration of compound.

[2] = Pharmacokinetics following single oral administration to mice; assay type: in vivo; conditions: mouse, CD-1 (ICR) mice, gavage 10 mg/kg, 0.5% methylcellulose/water suspension, plasma
Experimental: The compound of the present invention was formulated into a 0.5% methylcellulose/water uniform suspension, and was administered to CD-1 (ICR) mice by gavage at 10 mg/kg. Plasma samples were collected at 8 time points of 0.250, 0.500, 1.00, 2.00, 4.00, 6.00, 8.00 and 24.0 hours post-dose. Concentrations of the compound were determined by LC-MS/MS method.

ATR/ATRIP enzyme = target: T1, ATR/ATRIP enzyme (Homo sapiens, UniProt Q13535); experiment: ATR enzyme activity experiment (HTRF); assay type: biochemical; conditions: p53 substrate, 30 min room temperature, read-out: IC50 (nM), inhibitory effect on ATR kinase activity
T1 construct: purchased Eurofins 14-953
T1 sequence (Q13535 whole entry): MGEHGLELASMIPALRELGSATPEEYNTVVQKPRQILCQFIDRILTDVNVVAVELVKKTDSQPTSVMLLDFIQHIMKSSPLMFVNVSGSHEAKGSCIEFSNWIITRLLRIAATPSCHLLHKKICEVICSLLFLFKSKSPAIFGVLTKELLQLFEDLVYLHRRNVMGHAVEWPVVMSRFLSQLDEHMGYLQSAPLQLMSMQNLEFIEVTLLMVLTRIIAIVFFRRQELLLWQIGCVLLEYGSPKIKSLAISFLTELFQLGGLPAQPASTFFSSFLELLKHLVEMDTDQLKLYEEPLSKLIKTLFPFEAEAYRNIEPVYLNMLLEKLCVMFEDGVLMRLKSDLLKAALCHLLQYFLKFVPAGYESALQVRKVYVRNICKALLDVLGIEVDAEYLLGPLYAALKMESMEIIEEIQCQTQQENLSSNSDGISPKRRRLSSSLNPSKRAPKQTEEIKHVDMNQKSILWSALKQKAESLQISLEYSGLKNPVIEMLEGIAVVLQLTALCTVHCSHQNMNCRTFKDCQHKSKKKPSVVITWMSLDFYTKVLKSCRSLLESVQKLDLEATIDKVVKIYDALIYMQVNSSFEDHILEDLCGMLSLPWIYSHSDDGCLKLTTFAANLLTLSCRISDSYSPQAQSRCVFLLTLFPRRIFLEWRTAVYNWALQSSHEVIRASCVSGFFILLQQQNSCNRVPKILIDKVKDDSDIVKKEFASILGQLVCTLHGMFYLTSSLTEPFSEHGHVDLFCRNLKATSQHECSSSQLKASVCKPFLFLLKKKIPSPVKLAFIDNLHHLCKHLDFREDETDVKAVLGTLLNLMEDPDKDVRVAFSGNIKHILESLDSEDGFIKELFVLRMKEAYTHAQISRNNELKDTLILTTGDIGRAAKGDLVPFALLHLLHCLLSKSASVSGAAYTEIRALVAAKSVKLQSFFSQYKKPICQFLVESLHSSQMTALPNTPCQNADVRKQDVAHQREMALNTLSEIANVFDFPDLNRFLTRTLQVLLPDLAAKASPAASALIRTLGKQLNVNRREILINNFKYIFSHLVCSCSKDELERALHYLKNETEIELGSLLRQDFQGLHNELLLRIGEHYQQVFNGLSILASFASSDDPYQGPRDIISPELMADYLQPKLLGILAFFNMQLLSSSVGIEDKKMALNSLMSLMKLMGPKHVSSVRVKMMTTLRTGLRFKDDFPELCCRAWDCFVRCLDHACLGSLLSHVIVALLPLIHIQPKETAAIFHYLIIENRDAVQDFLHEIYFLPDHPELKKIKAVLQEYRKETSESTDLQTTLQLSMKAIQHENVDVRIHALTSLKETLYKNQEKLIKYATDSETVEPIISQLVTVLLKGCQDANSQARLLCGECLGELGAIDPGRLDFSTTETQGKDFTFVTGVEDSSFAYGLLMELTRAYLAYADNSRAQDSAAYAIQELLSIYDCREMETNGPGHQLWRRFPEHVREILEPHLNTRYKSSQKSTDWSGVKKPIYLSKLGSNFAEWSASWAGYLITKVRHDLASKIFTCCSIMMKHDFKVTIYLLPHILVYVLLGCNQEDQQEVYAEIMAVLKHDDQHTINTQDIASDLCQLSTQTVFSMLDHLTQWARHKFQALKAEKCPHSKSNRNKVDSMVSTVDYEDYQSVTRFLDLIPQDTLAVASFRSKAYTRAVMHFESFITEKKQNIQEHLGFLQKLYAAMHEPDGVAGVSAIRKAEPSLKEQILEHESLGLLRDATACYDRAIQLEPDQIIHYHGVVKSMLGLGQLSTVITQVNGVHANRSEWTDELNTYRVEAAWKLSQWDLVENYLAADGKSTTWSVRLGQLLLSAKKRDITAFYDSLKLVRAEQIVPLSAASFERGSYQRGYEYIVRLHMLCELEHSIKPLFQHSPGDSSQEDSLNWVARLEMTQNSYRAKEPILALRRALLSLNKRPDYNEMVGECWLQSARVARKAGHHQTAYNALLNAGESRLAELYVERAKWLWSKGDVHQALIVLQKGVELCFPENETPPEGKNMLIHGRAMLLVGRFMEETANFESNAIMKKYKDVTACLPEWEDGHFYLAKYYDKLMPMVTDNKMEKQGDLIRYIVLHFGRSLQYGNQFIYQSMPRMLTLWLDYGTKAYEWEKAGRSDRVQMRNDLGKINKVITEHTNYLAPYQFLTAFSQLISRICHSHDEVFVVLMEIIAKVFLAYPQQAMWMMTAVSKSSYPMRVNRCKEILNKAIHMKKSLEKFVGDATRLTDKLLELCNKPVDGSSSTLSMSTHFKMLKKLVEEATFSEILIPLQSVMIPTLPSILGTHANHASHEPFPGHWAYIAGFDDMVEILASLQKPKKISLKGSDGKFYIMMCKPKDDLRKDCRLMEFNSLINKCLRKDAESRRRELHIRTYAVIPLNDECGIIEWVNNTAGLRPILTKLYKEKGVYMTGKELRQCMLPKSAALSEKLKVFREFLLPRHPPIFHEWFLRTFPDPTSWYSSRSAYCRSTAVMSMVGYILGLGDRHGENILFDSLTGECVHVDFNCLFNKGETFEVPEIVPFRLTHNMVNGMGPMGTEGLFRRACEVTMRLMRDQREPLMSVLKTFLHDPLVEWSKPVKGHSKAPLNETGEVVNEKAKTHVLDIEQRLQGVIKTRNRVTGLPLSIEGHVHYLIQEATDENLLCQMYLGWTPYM
T1 sequence (Q8WXE1 whole entry partner): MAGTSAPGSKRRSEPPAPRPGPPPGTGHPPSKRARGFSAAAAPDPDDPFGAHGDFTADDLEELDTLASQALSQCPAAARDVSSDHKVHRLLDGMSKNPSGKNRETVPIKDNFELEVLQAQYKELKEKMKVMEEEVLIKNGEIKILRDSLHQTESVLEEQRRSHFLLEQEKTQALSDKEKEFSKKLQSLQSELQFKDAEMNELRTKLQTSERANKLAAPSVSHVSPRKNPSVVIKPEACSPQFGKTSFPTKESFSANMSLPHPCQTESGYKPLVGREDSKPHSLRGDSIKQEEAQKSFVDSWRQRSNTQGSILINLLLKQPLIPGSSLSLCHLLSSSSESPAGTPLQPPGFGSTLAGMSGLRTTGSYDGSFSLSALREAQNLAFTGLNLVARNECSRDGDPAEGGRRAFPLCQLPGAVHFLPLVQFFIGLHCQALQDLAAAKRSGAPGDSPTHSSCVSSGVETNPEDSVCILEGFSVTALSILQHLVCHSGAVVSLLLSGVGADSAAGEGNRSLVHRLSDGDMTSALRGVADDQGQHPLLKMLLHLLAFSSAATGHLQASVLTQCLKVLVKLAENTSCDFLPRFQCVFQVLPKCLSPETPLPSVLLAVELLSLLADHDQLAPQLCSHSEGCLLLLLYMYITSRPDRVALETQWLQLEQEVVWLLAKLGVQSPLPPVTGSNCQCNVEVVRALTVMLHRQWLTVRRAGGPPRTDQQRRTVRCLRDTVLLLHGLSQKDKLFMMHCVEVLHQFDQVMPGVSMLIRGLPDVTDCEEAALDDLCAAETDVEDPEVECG
Experimental: The mixture was centrifuged at 1000 rpm for 1 minute, and reacted at room temperature protected from light for 30 minutes. Then 5 μL of EDTA stop solution (250 mM) was added to stop the reaction.

[3] = test system: human lung cancer NCI-H460 cell; experiment: MTT proliferation assay, NCI-H460; assay type: cell-based; conditions: NCI-H460, 96 h, MTT, 4 days, read-out: IC50 (nM), proliferation of NCI-H460 cell
Experimental: The cells were digested by trypsinase and centrifuged at 800 rpm for 5 minutes, the supernatant was discarded, and the residual was resuspended with fresh medium […]) and counted.
as §1, with “μL” for “SEL”, “(%)=(ODcompound−ODbackground)/(ODDMSO−ODbackground)×100.” for “(%)=(ODcompound−ODbackground)/ODDMSO−ODbackground)×100.”, “IC50” for “IC5.0”, “[…],” for “Y=100/(1+10^(LogC-LogIC50)),”

| SMILES | IC50 ([1]; Homo sapiens, LoVo, 96 h) | AUC(0-inf) [2] | AUC(0-t) [2] | Cmax [2] | half-life [2] | IC50 (ATR/ATRIP enzyme) | IC50 [3] | IC50 [1] |
| --- | --- | --- | --- | --- | --- | --- | --- | --- |
| C=Cc1nc(-c2ccn[nH]2)n2nc(N3CCOC[C@H]3C)cc(-c3ccnn3C)c12 [Example 23, (R)-3-methyl-4-(4-(1-methyl-1H-pyrazol-5-yl)-7-(1H-pyrazol-5-yl)-5-vinylimidazo[1,5-b]pyridazin-2-yl)morpholine] | 39.1 nM | 24100 ng·h/mL | 22400 ng·h/mL | 6610 ng/mL | 1.66 h | 2 nM | 32 nM |  |
| CC(C)c1nc(-c2ccn[nH]2)n2nc(N3CCOC[C@H]3C)cc(-c3ccnn3C)c12 [Example 26, (R)-4-(5-isopropyl-4-(1-methyl-1H-pyrazol-5-yl)-7-(1H-pyrazol-5-yl)imidazo[1,5-b]pyridazin-2-yl)-3-methylmorpholine] | 27.4 nM | 49000 ng·h/mL | 46400 ng·h/mL | 7180 ng/mL | 5.82 h | 1 nM | 22.8 nM |  |
| C=C(C)c1nc(-c2ccn[nH]2)n2nc(N3CCOC[C@H]3C)cc(-c3ccnn3C)c12 [Example 25, (R)-3-Methyl-4-(4-(1-Methyl-1H-pyrazol-5-yl)-5-(prop-1-en-2-yl)-7-(1H-pyrazol-5-yl)imidazo[1,5-b]pyridazin-2-yl)morpholine] | 10.7 nM | 70200 ng·h/mL | 70000 ng·h/mL | 16900 ng/mL | 2.56 h | 1 nM | 8.64 nM |  |
| Cc1nc(-c2ccn[nH]2)n2nc(N3CCOC[C@H]3C)cc(-c3ccncc3F)c12 [Example 18, (R)-4-(4-(3-fluoropyridin-4-yl)-5-methyl-7-(1H-pyrazol-5-yl)imidazo[1,5-b]pyridazin-2-yl)-3-methylmorpholine] | 41.8 nM |  |  |  |  | 10 nM | 28 nM | 47.2 nM |
| Cc1cc(S(C)(=O)=O)ccc1-c1cc(N2CCOC[C@H]2C)nn2c(-c3ccn[nH]3)nc(C)c12 [Example 15, (R)-3-methyl-4-(5-methyl-4-(2-methyl-4-(methylsulfonyl)phenyl)-7-(1H-pyrazol-5-yl)imidazo[1,5-b]pyridazin-2-34)morpholine] | 19.5 nM |  |  |  |  | 6 nM | 12.5 nM |  |
| Cc1ccc(-c2cc(N3CCOC[C@H]3C)nn3c(-c4ccn[nH]4)nc(C)c23)cn1 [Example 17, (R)-3-methyl-4-(5-methyl-4-(6-methylpyridin-3yl)-7-(1H-pyrazol-5-yl)imidazo[1,5-b]pyridazin-2-yl)morpholine] | 49.1 nM |  |  |  |  | 18 nM | 45.8 nM |  |
| C[C@@H]1COCCN1c1cc(-c2ccnn2C)c2c(F)nc(-c3ccn[nH]3)n2n1 [Example 20, (R)-4-(5-fluoro-4-(1-methyl-1H-pyrazol-5-yl)-7-(1H-pyrazol-5-yl)imidazo[1,5-b]pyridazin-2-yl)-3-methylmorpholine] | 79.1 nM |  |  |  |  | 41 nM | 89.9 nM |  |
| Cc1ccccc1-c1cc(N2CCOC[C@H]2C)nn2c(-c3ccn[nH]3)nc(C)c12 [Example 3, (R)-3-methyl-4-(5-methyl-7-(1H-pyrazol-5-yl)-4-(o-tolyl)imidazo[1,5-b]pyridazin-2-yl)morpholine] | 49.5 nM |  |  |  |  | 2 nM | 27.3 nM |  |
| Cc1nc(-c2ccn[nH]2)n2nc(N3CCOC[C@H]3C)cc(-c3ccnn3C(C)C)c12 [Example 9, (R)-4-(4-(1-isopropyl-1H-pyrazol-5-yl)-5-methyl-7-(1H-pyrazol-5-yl)imidazo[1,5-b]pyridazin-2-yl)-3-methylmorpholine] | 39.3 nM |  |  |  |  | 3 nM | 30.2 nM |  |
| Cc1ncccc1-c1cc(N2CCOC[C@H]2C)nn2c(-c3ccn[nH]3)nc(C)c12 [Example 4, (R)-3-methyl-4-(5-methyl-4-(2-methylpyridin-3-yl)-7-(1H-pyrazol-5-yl)imidazo[1,5-b]pyridazin-2-yl)morpholine] | 26.9 nM | 44000 ng·h/mL | 43400 ng·h/mL | 9010 ng/mL | 3.2 h | 3 nM | 13 nM |  |
| C[C@@H]1COCCN1c1nc(-c2ccnn2C)c2cnc(-c3cc[nH]n3)n2n1 [Example 27, (R)-3-methyl-4-(4-(1-methyl-1H-pyrazol-5-yl)-7-(1H-pyrazol-3-yl)imidazo[5,1-f][1,2,4]triazin-2-yl)morpholine] | 110 nM |  |  |  |  |  | 68.3 nM |  |
| Cc1cc(-c2nc(C)c3c(-c4ccnn4C)cc(N4CCOC[C@H]4C)nn23)[nH]n1 [Example 8, (R)-3-methyl-4-(5-methyl-4-(1-methyl-1H-pyrazol-5-yl)-7-(3-methyl-1H-pyrazol-5-yl)imidazo[1,5-b]pyridazin-2-yl)morpholine] | 17.9 nM |  |  |  |  | 4 nM | 14.9 nM |  |
| Cc1nc(-c2ccn[nH]2)n2nc(N3CCOC[C@H]3C)cc(-c3cccnc3F)c12 [Example 16, (R)-4-(4-(2-fluoropyridin-3-yl)-5-methyl-7-(1H-pyrazol-5-yl)imidazo[1,5-b]pyridazin-2-yl)-3-methylmorpholine] | 17.6 nM |  |  |  |  | 9 nM | 12.5 nM |  |
| Cc1cnn(C)c1-c1cc(N2CCOC[C@H]2C)nn2c(-c3ccn[nH]3)nc(C)c12 [Example 11, (R)-4-(4-(1,4-dimethyl-1H-pyrazol-5-yl)-5-methyl-7-(1H-pyrazol-5-yl)imidazo[1,5-b]pyridazin-2-yl)-3-methylmorpholine] |  |  |  |  |  | 2 nM | 30.1 nM |  |
| Cc1nc(-c2ccn[nH]2)n2nc(N3CCOC[C@H]3C)cc(-c3cccc(C#N)c3)c12 [Example 6, (R)-3-(5-methyl-2-(3-methylmorpholino)-7-(1H-pyrazol-5-yl)imidazol, [1,5-b]pyridazin-4-yl)benzonitrile] | 44.1 nM |  |  |  |  | 5 nM | 21.8 nM |  |
| Cc1nn(C)cc1-c1cc(N2CCOC[C@H]2C)nn2c(-c3ccn[nH]3)nc(C)c12 [Example 13, (R)-4-(4-(1,3-dimethyl-1H-pyrazol-4-yl)-5-methyl-7-(1H-pyrazol-5-yl)imidazo[1,5-b]pyridazin-2-yl)-3-methylmorpholine] | 46.5 nM |  |  |  |  | 14 nM | 33.2 nM |  |
| Cc1nc(-c2ccn[nH]2)n2nc(N3CCOC[C@H]3C)cc(C3CCOCC3)c12 [Example 7, (R)-3-methyl-4-(5-methyl-7-(1H-pyrazol-5-yl)-4-(tetrahydro-2H-pyran-4-yl)imidazol[1,5-b]pyridazin-2-yl)morpholine] | 24.6 nM |  |  |  |  | 1 nM | 15.7 nM |  |
| Cc1nc(-c2ccn[nH]2)n2nc(N3CCOC[C@H]3C)cc(-c3ccn(C(F)F)n3)c12 [Example 10, (R)-4-(4-(1-(difluoromethyl)-1H-pyrazol-3-yl)-5-methyl-7-(1H-pyrazol-5-yl)imidazo[1,5-b]pyridazin-2-yl)-3-methylmorpholine] | 116 nM |  |  |  |  | 217 nM | 97.3 nM |  |
| CCn1nccc1-c1cc(N2CCOC[C@H]2C)nn2c(-c3ccn[nH]3)nc(C)c12 [Example 2, (R)-4-(4-(1-ethyl-1H-pyrazol-5-yl)-5-methyl-7-(1H-pyrazol-5-yl)imidazo[1,5-b]pyridazin-2-yl)-3-methylmorpholine] | 43.6 nM |  |  |  |  | 3 nM | 21.9 nM |  |
| Cc1nc(-c2ccn[nH]2)n2nc(N3CCOC[C@H]3C)cc(-c3cnn(C)c3C)c12 [Example 12, (R)-4-(4-(1,5-dimethyl-1H-pyrazol-4-yl)-5-methyl-7-(1H-pyrazol-5-yl)imidazo[1,5-b]pyridazin-2-yl)-3-methylmorpholine] | 19.6 nM |  |  |  |  | 1 nM | 28 nM |  |
